The numbers were not newly measured in US6306899A (priority 1999, dated 2001), which cites them from elsewhere.

For data set [1] the following is noted: background; in words; cited from earlier work.
A further data set deals with HBV. The note with it: background; in words; cited from earlier work.

`Nc1ccn([C@H]2CC[C@@H](CO)O2)c(=O)n1` [2',3'-dideoxycytidine (ddC), 2',3'-dideoxycytidine]: in data set [1], the toxicity result is “high toxicity on the central and peripheral nervous system”. In the case of `Nc1ncnc2c1ncn2[C@@H]1O[C@H](COP(=O)(O)O)[C@@H](O)[C@@H]1O` [ara-AMP], the “effect on HBV infection” value in the data set with HBV is “transiently suppress HBV infection”. Further, the toxicity result in data set [1] is on record as “extremely toxic”. Turning to `Nc1nc2c(ncn2CCC(CO)CO)c(=O)[nH]1` [PCV], the “effect on HBV infection” value in the data set on HBV is reported as “recurrence of HBV after a period of treatment”.
